Data taken from patent US4436742A, “4-Hydroxy-2,1,3-benzthiadiazole compounds and β-adrenergic method of use therefor” (Boehringer Mannheim GmbH, priority 1974, dated 1984).

How the values were obtained:
[1] = acute toxicity in mice, intravenous; details: in vivo, mouse, i.v., dosage at which 50% of the mice die
Experimental: 1. The acute toxicity in mice when administered intravenouly was measured and the LD50 (=dosage at which 50% of the mice die) determined.

[2] = system: cardiac β-receptor; assay: inhibition of isoprenalin tachycardia in wake rabbits (cardiac β-receptor blocking activity); type: in vivo, rabbit; details: for Heartbeat Frequency: isoprenalin 1 μg/kg i.v. 30 minutes after infusion, x ± sx; for DE250: i.v., interpolated dosage which limits the frequence increase to 250 beats/min
Experimental: The following tests were carried out to determine the cardiac β-receptor blocking activity of certain test compounds by determining the inhibition of the heart beat frequency increase induced by intravenous administration of isoprenalin.
The β-receptor blocking activity of the test compounds was tested on wake rabbits weighing between 2 to 3.5 kg. and kept in wooden cages. EKG-electrodes were inserted into the hind quarters of the rabbits s.c. (II. lead) and the heart frequency was measured based on 20 heart beats. The test compounds were then infused through a small tube to the ear vein of the rabbits over a period of 15 minutes. 30 minutes after the infusion isoprenalin (3,4-dihydro-α-[(isopropylamino)-methyl]-benzylalcohol) was injected intravenously at 1 μg/kg.

SMILES | LD50 [1] [mg/kg] | Heartbeat Frequency ([2]; 1.0 mg/kg i.v.) [beats/min] | Heartbeat Frequency ([2]; 5.0 mg/kg i.v.) [beats/min] | DE250 [2] [mg/kg] | Heartbeat Frequency ([2]; 0.01 mg/kg i.v.) [beats/min] | Heartbeat Frequency ([2]; 0.1 mg/kg i.v.) [beats/min] | Heartbeat Frequency ([2]; 0.3 mg/kg i.v.) [beats/min] | Heartbeat Frequency ([2]; 0.5 mg/kg i.v.) [beats/min]
CC(C)NCC(O)COc1ccc2nsnc2c1 (centres unmarked) [Compound A, 5-(3-Isopropylamino-2-hydroxypropoxy)-2,1,3-benzo-thiadiazole, reference compound] | 100 | 290 ± 8 | 246 ± 7 | 5 |  |  |  | 
CC(C)NCC(O)COc1cccc2nsnc12 (centres unmarked) [Compound I, 4-(3-Isopropylamino-2-hydroxy-propyloxy)-2,1,3-benzthiadiazole] | 50 | 220 ± 14 | 210 ± 5 | 0.7 | 324 ± 9 | 297 ± 10 | 266 ± 14 | 
CC(C)(C)NCC(O)COc1cccc2nsnc12 (centres unmarked) [Compound II] | 45 | 215 ± 10 | 220 ± 7 | 0.5 |  | 308 ± 10 |  | 245 ± 6
